Results published in article PMC9388626, “STUB1 is an intracellular checkpoint for interferon gamma sensing” (Scientific Reports, 2022).

Tests used:
MCF7 cells [1] = assay: Growth inhibition, CellTiter-Glo 2.0 (ATP); format: cell-based, human; settings: MCF7, 10 ng ml^−1, 6 days
Procedure: (§1) Parental and CRISPR-edited tumour cells were seeded in a cell density of 1800 (DU145), 2000 (PC-3), or 10,000 (MCF7) per well in 96-well CellCarrier plate (PelkinElmer, #6005550) filled with 50 µl culture media + 10% FBS. After 20–24 h incubation, the cells were treated with 10 ng ml^−1 of recombinant human IFNγ (R&D Systems, 285-IF-100), 10 ng ml^−1 of recombinant human TNFα (R&D Systems, 210-TA-020/CF) or a combination of both, by adding an equal volume of the complete culture media containing the cytokines. After incubating for 6 days without media change, the CellTiter-Glo 2.0 (Promega, G9243) or CellTiter-Fluor (Promega, G6082) assay were performed according to manufacturer’ instructions. The luminescence or fluorescence (Ex: 380–400 nm, Em: 505 nm) were detected by Inifinte M1000 PRO (Tecan). For CellTiter-Fluor, triplicate wells without cells were included to determine background fluorescence and the signal average was used for background substraction.

DU145 cells = assay: Growth inhibition, CellTiter-Fluor (live-cell protease activity); format: cell-based, human; parameters: scale not given here; settings: 10 ng ml-1 each, 6-day
Procedure: as §1

MCF7 cells [2] = assay: as above; format: cell-based, human; parameters: scale not given here; settings: 10 ng ml-1 each, 6-day
Procedure: as §1

PC-3 cells = assay: as above; format: cell-based, human; parameters: scale not given here; settings: 10 ng ml-1 each, 6-day
Procedure: as §1

B16-F10 cells = assay: Flow cytometry, surface IFNGR1, mCherry2-peptide stable cells; format: cell-based, murine; settings: stable expression; resting and IFNγ-stimulated (mouse IFNγ 0.03 ng ml^−1, 24 h)
Text: (§2) To generate the plasmids, gBlocks gene fragments (IDT) encoding the inhibitory biologic (FLAG-mCherry2-GGSGGS-SIWWPD) and the control biologic (FLAG-mCherry2-GGSGGS-SIWWHR) were cloned into pEF6 vector (Thermo Fisher Scientific) by standard restriction enzyme digestion and T4 DNA ligation. The final constructs were verified by Sanger sequencing. Coding sequences of the constructs are provided in Supplementary Table S5. To generate the stable cell lines, a total of 2 × 10^5 B16-F10, A375 or A549 cells were electroporated with 200 ng plasmid using DJ-110, FF-120 or CM-130 respectively—the preset programmed in 4D-nucleofector system (Lonza). The preparation of the cell suspension and the process of the electroporation are similar to that described in the CRISPR method section. The stable cell lines were selected using 10 µg ml^−1 blasticidin three days post-electroporation and were maintained in 5 µg ml^−1 blasticidin once the stable colonies were established. […]
(§3) Cells were dissociated from the wells with 0.25% trypsin (Gibco, 25200056). […] Cells were analyzed on LSRFortessa X-20 (BD Biosciences) with appropiate fluorescence compensation. The data were analyzed using FlowJo. […]

A375 cells [3] = assay: as above; format: cell-based; settings: A375, stable expression; untreated or human IFNγ 0.01 ng ml^−1, 24 h
Text: as §2, §3

A549 cells [4] = assay: as above; format: cell-based; settings: A549, stable expression; untreated or human IFNγ 0.01 ng ml^−1, 24 h
Text: as §2, §3

A375 cells [5] = assay: Flow cytometry, surface MHC-I, mCherry2-peptide stable cells; format: cell-based; settings: A375, stable expression; human IFNγ 0.01 ng ml^−1, 24 h
Text: as §2, §3

A549 cells [6] = assay: as above; format: cell-based; settings: A549, stable expression; human IFNγ 0.01 ng ml^−1, 24 h
Text: as §2, §3

STUB1 = assay: Co-immunoprecipitation of FLAG-mCherry2-peptide and STUB1; format: binding, murine; settings: B16-F10 lysate, anti-FLAG
Procedure: B16-F10 cells stably expressing the biologic were harvested, rinsed with PBS, and lysed with chilled cell lysis buffer (Cell Signaling Technology, #9803) supplemented with Halt protease inhibitor cocktail (Life Technologies, #78430) and phosphatase inhibitor (Sigma-Aldrich, # 4906837001). Cellular lysates were clarified by centrifugation at 15,000 rpm at 4 °C for 15 min. Protein concentration was determined using BCA protein assay kit (Pierce, #23225). For each sample of the co-immunoprecipitation (co-IP), 20 µl of anti-FLAG magnetic beads (Sigma-Aldrich, M8823) was rinsed twice with 0.2 ml PBS, followed by addition of 500 µl diluted cellular lysate (60 µg, 0.12 µg µl^−1). For competitive inhibition, synthetic peptide (SIWWPD) was added into the co-IP mixture. The resulting mixture was rotated at room temperature for 4 h, after which the beads were rinsed with 3 × 0.5 ml PBS to remove the unbound proteins. Bound protein complexes were directly eluted with a 20 µl solution of LDS sample buffer (Life Technologies, NP0008) supplemented with sample reducing agent (Life Technologies, NP0009), followed by heating at 70 °C for 10 min. […] Blotting was similar to the Western Blot section described above. Primary antibodies used were: STUB1/CHIP (Cell Signaling Technology, #2080, 1:1000 dilution), FLAG (Sigma-Aldrich, F1804, 1:1000 dilution). […]

## TNFα
MCF7 cells [1]
  Growth inhibition of PTPN2- or STUB1-null cells: could sensitize MCF7 breast tumour cell
DU145 cells; DU145 PTPN2 sgRNA, replicate 1
  FC in live-cell protease activity relative to parental cells: 0.07
DU145 cells; DU145 PTPN2 sgRNA, replicate 2
  FC in live-cell protease activity relative to parental cells: 0.13
DU145 cells; DU145 PTPN2 sgRNA, replicate 3
  FC in live-cell protease activity relative to parental cells: -0.00707
DU145 cells; DU145 Parental, replicate 1
  FC in live-cell protease activity relative to parental cells: -0.0322
DU145 cells; DU145 Parental, replicate 2
  FC in live-cell protease activity relative to parental cells: 0.08
DU145 cells; DU145 Parental, replicate 3
  FC in live-cell protease activity relative to parental cells: -0.05
DU145 cells; DU145 STUB1 sgRNA, replicate 1
  FC in live-cell protease activity relative to parental cells: 0.0056
DU145 cells; DU145 STUB1 sgRNA, replicate 2
  FC in live-cell protease activity relative to parental cells: 0.0106
DU145 cells; DU145 STUB1 sgRNA, replicate 3
  FC in live-cell protease activity relative to parental cells: 0.16
DU145 cells; DU145 control sgRNA, replicate 1
  FC in live-cell protease activity relative to parental cells: -0.0256
DU145 cells; DU145 control sgRNA, replicate 2
  FC in live-cell protease activity relative to parental cells: -0.00666
DU145 cells; DU145 control sgRNA, replicate 3
  FC in live-cell protease activity relative to parental cells: -0.0248
MCF7 cells [2]; MCF7 PTPN2 sgRNA, replicate 1
  FC in live-cell protease activity relative to parental cells: -0.29
MCF7 cells [2]; MCF7 PTPN2 sgRNA, replicate 2
  FC in live-cell protease activity relative to parental cells: -0.31
MCF7 cells [2]; MCF7 PTPN2 sgRNA, replicate 3
  FC in live-cell protease activity relative to parental cells: -0.32
MCF7 cells [2]; MCF7 Parental, replicate 1
  FC in live-cell protease activity relative to parental cells: 0.00519
MCF7 cells [2]; MCF7 Parental, replicate 2
  FC in live-cell protease activity relative to parental cells: -0.01
MCF7 cells [2]; MCF7 Parental, replicate 3
  FC in live-cell protease activity relative to parental cells: 0.00479
MCF7 cells [2]; MCF7 STUB1 sgRNA, replicate 1
  FC in live-cell protease activity relative to parental cells: -0.18
MCF7 cells [2]; MCF7 STUB1 sgRNA, replicate 2
  FC in live-cell protease activity relative to parental cells: -0.39
MCF7 cells [2]; MCF7 STUB1 sgRNA, replicate 3
  FC in live-cell protease activity relative to parental cells: -0.36
MCF7 cells [2]; MCF7 control sgRNA, replicate 1
  FC in live-cell protease activity relative to parental cells: -0.14
MCF7 cells [2]; MCF7 control sgRNA, replicate 2
  FC in live-cell protease activity relative to parental cells: -0.16
MCF7 cells [2]; MCF7 control sgRNA, replicate 3
  FC in live-cell protease activity relative to parental cells: -0.18
PC-3 cells; PC-3 PTPN2 sgRNA, replicate 1
  FC in live-cell protease activity relative to parental cells: 0.08
PC-3 cells; PC-3 PTPN2 sgRNA, replicate 2
  FC in live-cell protease activity relative to parental cells: -0.06
PC-3 cells; PC-3 PTPN2 sgRNA, replicate 3
  FC in live-cell protease activity relative to parental cells: 0.13
PC-3 cells; PC-3 Parental, replicate 1
  FC in live-cell protease activity relative to parental cells: 0.11
PC-3 cells; PC-3 Parental, replicate 2
  FC in live-cell protease activity relative to parental cells: -0.05
PC-3 cells; PC-3 Parental, replicate 3
  FC in live-cell protease activity relative to parental cells: -0.07
PC-3 cells; PC-3 STUB1 sgRNA, replicate 1
  FC in live-cell protease activity relative to parental cells: 0.20
PC-3 cells; PC-3 STUB1 sgRNA, replicate 2
  FC in live-cell protease activity relative to parental cells: 0.00375
PC-3 cells; PC-3 STUB1 sgRNA, replicate 3
  FC in live-cell protease activity relative to parental cells: -0.0246
PC-3 cells; PC-3 control sgRNA, replicate 1
  FC in live-cell protease activity relative to parental cells: 0.19
PC-3 cells; PC-3 control sgRNA, replicate 2
  FC in live-cell protease activity relative to parental cells: 0.026
PC-3 cells; PC-3 control sgRNA, replicate 3
  FC in live-cell protease activity relative to parental cells: -0.06

## mCherry2-SIWWPD
B16-F10 cells
  Cell surface IFNGR1: upregulation of IFNGR1 on the cell surface of B16-F10, under both resting and IFNγ-stimulating conditions
A375 cells [3]
  Cell surface IFNGR1: also resulted in the same phenotype
A549 cells [4]
  Cell surface IFNGR1: also resulted in the same phenotype
A375 cells [5]
  Cell surface MHC-I: boost the surface levels of MHC-I in response to IFNγ
A549 cells [6]
  Cell surface MHC-I: boost the surface levels of MHC-I in response to IFNγ
STUB1
  Co-precipitation of STUB1: STUB1 was co-precipitated
